# Source: PMC4527730, “A Pan-GTPase Inhibitor as a Molecular Probe” (PLoS ONE, 2015)
# Columns and labels:
# [1] = Stability in PBS; format: physicochemical; details: 23 °C, after 48 hours
# Protocol: page 7: conclusion, the available data support the idea that compound CID1067700 has non-classical competitive character. […] Solubility was measured in phosphate buffered saline (PBS) at room temperature (23 °C). PBS by definition is 137 mM NaCl, 2.7 mM KCl, 10 mM sodium phosphate dibasic, 2 mM potassium phosphate [monobasic and a pH of 7.4. Detection was based on UV absorbance. […] Solubility was also assessed in the each of the four media used in the individual assays. […] Table 1S. […] Stability, depicted as closed circles in the graph, was assessed at room temperature (23 °C) in PBS (no antioxidants or other protectants and DMSO concentration below 0.1%). Stability data is depicted in Fig. S8 showing the loss of compound with time over a 48 h period with a minimum of 6 time points and providing the percent remaining compound at end of the 48 h period. Under these conditions, 77% of 1 remains after 48 hours. The degradation has not been further characterized.
# [2] = target: Rac1 (Homo sapiens, UniProt P63000); assay: Multiplex bead-based flow cytometry dose-response of fluorescent guanine nucleotide binding
# Protocol: Briefly, individual GST-GTPases were separately attached to glutathione microsphere beads that were labeled with varying intensity of red fluorescent dye, and subsequently combined. The buffer contains 30 mM HEPES (pH 7.2), 150 mM KCl, 20 mM NaCl, 0.1% BSA, 1 mM DTT, 1 mM EDTA and 0.1% NP-40. For Rho A and Rac1, 1 mM EDTA was replaced with 1 mM MgCl2 to stabilize the protein. […] To study whether the compounds are slow binders, BODIPY^- FL GTP was added either immediately or 2 h after compound addition. […] The curves were fitted to the sigmoidal dose-response equation using GraphPad Prism. Percent response was calculated as the ratio of (sample MCF–negative control MCF) / (positive control MCF–negative control MCF).
# [3] = target: Cdc42 Q61L (Homo sapiens, UniProt P60953, Q61L); assay: as above; details: EC50 Cdc42 Q61L
# [4] = test system: Ras; assay: GTPase and effector interaction assay (Raf1-RBD beads), HeLa cell lysates; details: HeLa cells, 10 μM, 2 h, EGF 10 ng/mL 2 min
# Protocol: GST effector chimeras consisting of the minimal GTPase binding domain were p21-activated kinase p21 binding domain (PAK-PBD) for Cdc42, Raf1 Ras-binding domain (Raf1-RBD) for Ras, and Rab-interacting lysosomal protein (RILP) for Rab7 binding measurements.
# Superdex peptide beads (13 μm, from GE Healthcare) derivatized with GSH were coated with effector proteins to saturation. […] The effector-coated glutathione beads (20,000 beads/assay) were incubated with 200 μL cell lysate from a single treated well for 1 h at 4°C. […] The bead associated fluorescence representing bound GTPase was quantified on an Accuri C6 flow cytometer.
# Cdc42 Q61L, sequence (P60953 whole entry Q61L): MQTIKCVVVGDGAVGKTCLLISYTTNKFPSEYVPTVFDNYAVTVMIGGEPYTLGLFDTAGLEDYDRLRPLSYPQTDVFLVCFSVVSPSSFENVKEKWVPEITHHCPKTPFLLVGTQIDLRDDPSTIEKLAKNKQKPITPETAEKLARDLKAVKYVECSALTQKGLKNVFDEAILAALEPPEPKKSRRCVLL
smiles,measurement,setting,value
CC1(C)Cc2c(sc(NC(=S)NC(=O)c3ccccc3)c2C(=O)O)CO1 [Compound 1],compound remaining,[1],77%
same,EC50,"[2]; EC50 Rac1, BODIPY-FL GTP binding, 2 h at 4°C, 1 mM MgCl2",62 ± 49 nM
same,EC50,"[2]; EC50 Rac1, concentration dependence on BODIPY-FL GDP",99 nM
same,EC50,"[3]; BODIPY-FL GTP binding, 2 h at 4°C",47 ± 38 nM
same,EC50,[3]; concentration dependence on BODIPY-FL GDP,350 nM
same,level of active Ras after EGF stimulation,[4],dramatically blunted
